# Measured values published in paper PMC7037305 (2020).
# Tests used:
# [1] = system: Telomere G1 (DNA, G4) TAGGGTTAGGGTTAGGGTTAGGG; experiment: ITC; conditions: K+ (50 mM KH2PO4-K2HPO4); potassium phosphate buffer pH 7.0, 25 °C, dilute condition without PEG200
# [2] = system: c-myc (DNA, G4) TGAGGGTGGGGAGGGTGGGGAA; experiment: ITC; conditions: K+ (50 mM KH2PO4-K2HPO4); potassium phosphate buffer pH 7.0, 25 °C, dilute condition without PEG200
# [3] = system: Telomere G1 (DNA, G4) TAGGGTTAGGGTTAGGGTTAGGG; experiment: CD melting at 288 nm; conditions: 100 mM KCl, 50 mM Tris-HCl pH 7.4, 4.5 μM compound, 1.5 μM DNA
# [4] = system: c-myc (DNA, G4) TGAGGGTGGGGAGGGTGGGGAA; experiment: CD melting at 263 nm; conditions: 5 mM KCl; 50 mM Tris-HCl pH 7.4; 4.5 μM compound, 1.5 μM DNA
Ka [1] [M⁻¹],Ka [2] [M⁻¹],"ΔTm ([3]; derived from two Tm (70.5, 65)) [°C]",ΔTm [4] [°C],"ΔTm ([3]; derived from two Tm (73.5, 65)) [°C]","ΔTm ([3]; derived from two Tm (79, 65)) [°C]",Structure (SMILES)
3.4e+06,1.1e+06,5.5,> 15,,,CN1CCCNC(=O)CCCC(=O)NCCCN(C)CCCN2C(=O)c3ccc4c5c(ccc(c35)C2=O)C(=O)N(CCC1)C4=O
1.5e+06,6.2e+06,,> 15,8.5,,CN1CCCNC(=O)CC2(CCCCC2)CC(=O)NCCCN(C)CCCN2C(=O)c3ccc4c5c(ccc(c35)C2=O)C(=O)N(CCC1)C4=O
2.2e+06,2.4e+06,,> 15,,14,CN1CCCNC(=O)c2cccc(c2)C(=O)NCCCN(C)CCCN2C(=O)c3ccc4c5c(ccc(c35)C2=O)C(=O)N(CCC1)C4=O
